This is an account of results in paper PMC8685421 (Frontiers in Pharmacology, 2021).

The target of one test is T1, Nav1.9 (Homo sapiens, UniProt Q9UI33).
T1 construct: expressed in transfected cells; host or cells: ND7/23
Put plainly: Whole-cell patch-clamp, fast inactivation of Nav1.9 in ND7/23 cells. Format: cell-based. The settings on record: 100 ms depolarization to −40 mV from −120 mV, Hill fit, mean ± SEM, n = 6, read-out: EC50 for inhibition of the fast inactivation of Nav1.9. An excerpt: (§1) Rat Nav1.4, human Nav1.7 and rat Nav1.8 cDNA clones were kindly gift from Dr. Theodore Cummins (Stark Neurosciences Research Institute, Indiana University School of Medicine, Indianapolis, IN, United States) and were subcloned into the pCMV or pCDNA3.1-blank vectors. Human Nav1.9 was subcloned into the pEGFP-N1 vector. The C-terminal of hNav1.9 was linked to GFP to construct a fusion protein channel (hNav1.9-eGFP), which was as described in our previous studies ([Zhou et al., 2017]). Mutations were made using the site-directed mutation method or recombination-based cloning using GenBuilder™ Cloning Kit (GenScript, United States). Primers presented in Supplementary Tables 1–4. All mutations were verified by DNA sequencing.
(§2) ND7/23 and HEK293T cells were maintained at 37°C in a humidified 5% CO2 incubator in Dulbecco’s Modified Eagle’s Medium (DMEM) supplemented with 10% fetal bovine serum, 100 μg/ml streptomycin, 100 U/ml penicillin, and 2 mM L-glutamine. The cells were trypsinized, diluted with 1 ml of culture medium, and seeded at a 1:5 ratio in 35 mm Petri dishes for culture. When grown to 80–90% confluence, the ND7/23 cells were transfected with hNav1.9-GFP or hNav1.9-GFP mutants using the X-tremeGENE HP DNA Transfection Reagent (Roche, Basel, Switzerland) according to the manufacturer’s instructions. […]

The target in the next test is T2, Nav1.4 (Rattus norvegicus, UniProt P15390).
T2 construct: expressed in transfected cells; host or cells: HEK293T
T2 sequence (P15390 whole entry): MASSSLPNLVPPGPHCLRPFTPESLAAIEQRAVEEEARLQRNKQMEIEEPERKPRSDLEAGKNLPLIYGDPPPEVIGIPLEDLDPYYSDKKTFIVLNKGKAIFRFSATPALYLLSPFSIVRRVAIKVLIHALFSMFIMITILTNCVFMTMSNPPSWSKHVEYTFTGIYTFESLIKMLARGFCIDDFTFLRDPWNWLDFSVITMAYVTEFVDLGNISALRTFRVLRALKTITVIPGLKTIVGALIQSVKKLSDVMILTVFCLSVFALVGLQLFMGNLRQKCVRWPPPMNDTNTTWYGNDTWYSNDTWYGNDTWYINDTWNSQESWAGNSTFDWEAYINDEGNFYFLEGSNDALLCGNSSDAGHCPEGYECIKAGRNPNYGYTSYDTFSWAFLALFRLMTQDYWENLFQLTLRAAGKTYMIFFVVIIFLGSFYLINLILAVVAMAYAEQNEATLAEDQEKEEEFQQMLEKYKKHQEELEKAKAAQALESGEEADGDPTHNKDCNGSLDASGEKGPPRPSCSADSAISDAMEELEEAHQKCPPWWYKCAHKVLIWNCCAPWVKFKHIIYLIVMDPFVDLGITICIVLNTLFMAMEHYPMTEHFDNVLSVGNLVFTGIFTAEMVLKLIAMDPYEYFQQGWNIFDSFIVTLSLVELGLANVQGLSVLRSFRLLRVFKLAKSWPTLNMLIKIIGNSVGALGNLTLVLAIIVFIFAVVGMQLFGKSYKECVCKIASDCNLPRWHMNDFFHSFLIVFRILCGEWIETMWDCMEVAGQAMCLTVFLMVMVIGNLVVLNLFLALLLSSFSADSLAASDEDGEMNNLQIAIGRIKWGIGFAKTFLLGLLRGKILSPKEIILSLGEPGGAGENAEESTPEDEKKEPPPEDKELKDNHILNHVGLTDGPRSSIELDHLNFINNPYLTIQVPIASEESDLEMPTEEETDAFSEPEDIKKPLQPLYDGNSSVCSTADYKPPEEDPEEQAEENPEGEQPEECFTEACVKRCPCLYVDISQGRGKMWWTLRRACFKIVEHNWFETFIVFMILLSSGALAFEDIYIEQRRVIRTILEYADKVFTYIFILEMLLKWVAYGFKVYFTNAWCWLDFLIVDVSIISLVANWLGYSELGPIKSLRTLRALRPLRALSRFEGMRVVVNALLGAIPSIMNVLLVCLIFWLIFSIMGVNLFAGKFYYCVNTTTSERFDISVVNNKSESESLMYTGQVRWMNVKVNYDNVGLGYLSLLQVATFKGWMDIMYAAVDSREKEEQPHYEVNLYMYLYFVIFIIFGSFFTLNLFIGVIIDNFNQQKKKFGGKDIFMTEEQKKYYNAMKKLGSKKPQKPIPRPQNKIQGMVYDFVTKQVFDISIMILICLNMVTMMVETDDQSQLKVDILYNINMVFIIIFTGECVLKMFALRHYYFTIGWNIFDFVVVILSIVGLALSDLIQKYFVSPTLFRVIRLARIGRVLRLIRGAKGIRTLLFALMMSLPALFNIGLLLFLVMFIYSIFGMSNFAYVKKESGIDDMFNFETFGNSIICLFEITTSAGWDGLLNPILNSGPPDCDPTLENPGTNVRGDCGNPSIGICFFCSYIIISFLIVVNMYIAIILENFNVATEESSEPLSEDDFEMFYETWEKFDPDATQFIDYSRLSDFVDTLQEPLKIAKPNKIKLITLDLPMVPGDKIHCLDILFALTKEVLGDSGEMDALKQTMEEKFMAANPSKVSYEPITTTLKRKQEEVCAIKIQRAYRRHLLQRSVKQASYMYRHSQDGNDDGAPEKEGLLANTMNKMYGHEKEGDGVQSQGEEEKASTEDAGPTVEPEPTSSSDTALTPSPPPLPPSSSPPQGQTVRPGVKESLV
Put plainly: Whole-cell patch-clamp, Nav1.4 current in HEK293T cells. Format: cell-based. The conditions noted are these: 50 ms steps to −10 mV from −90 mV, n = 4–6, read-out: IC50 for inhibition of Nav1.4 current.
Excerpt: as §1, §2
For orientation: The patch-clamp technique gives a direct electrical read-out from membranes.

Another test concerns the target T3, Nav1.7 (Homo sapiens, UniProt Q15858).
T3 construct: expressed in transfected cells; host or cells: HEK293T
Kind of test: Whole-cell patch-clamp, Nav1.7 current in HEK293T cells. Format: cell-based. The settings on record: 50 ms steps to −10 mV from −90 mV, n = 4–6, read-out: IC50 for inhibition of Nav1.7 current.
Excerpt: as §1, §2

A further test concerns the target T4, Nav1.9/1.8 DIV VSD (Homo sapiens, UniProt Q9UI33, A1385V/A1393E/C1434F/D1399G/DEL1452-1455/H1400R/I1367A/I1373M/I1377C/I1397V/I1408V/I1415M/I1417M/I1446F/I1464V/INS1447AILK/K1392E/K1395T/L1401I/L1411G/L1414V/L1431V/L1438I/M1394K/M1445L/N1389E/P1391G/P1456Y/P1458S/R1481K/S1365R/S1374V/S1382T/S1387T/S1396K/T1444L/T1448S/V1404F/V1407A/V1435I/V1442G/V1465I/V1477I/W1403Q/Y1388D).
T4 construct: expressed in transfected cells; host or cells: ND7/23
Kind of test: Patch-clamp, chimera Nav1.9/1.8 DIV VSD. Format: cell-based, human Nav1.9 / rat Nav1.8. The settings on record: mean ± SEM, n = 4; I95/Ipeak; read-out: EC50 for inhibition of the fast inactivation.
Excerpt: as §1, §2

Test [1] concerns voltage sensor of Nav channels. The settings on record: ref Xiao et al., 2008, 2010, Zhou et al., 2020, Liu et al., 2013; cited from earlier work. An excerpt:
Gating modifier toxins typically affect channel gating by regulating the voltage-sensor of the channel. […] Ther ...

A further test deals with Kv2.1 channel. The settings on record: ref Chen et al., 2012; Bemporad et al., 2006; cited from earlier work. The source says:
The venom of the spider Grammostola rosea contains several classes of peptide toxins that target ion channels (Figure 1A). […] Due to poor heterologous expression in mammal cells, pharmacological studies of the Nav1.9 channel have lagged. Previously, we succeeded in achieving functional ...

A further test has as its system Nav1.7 channel. Also noted: method as in 3 sources, one per row (each row's own in cited_ref): ref Murray et al., 2015 ||| ref Chen et al., 2020 ||| ref Xiao et al., 2010. The conditions noted are these: ProTx-II; ref Xiao et al., 2010; cited from earlier work.

Where a SMILES comes first, the peptide text is derived from it. Bridges are numbered along the chain shown (N, C = ends).

T3 sequence (Q15858 whole entry): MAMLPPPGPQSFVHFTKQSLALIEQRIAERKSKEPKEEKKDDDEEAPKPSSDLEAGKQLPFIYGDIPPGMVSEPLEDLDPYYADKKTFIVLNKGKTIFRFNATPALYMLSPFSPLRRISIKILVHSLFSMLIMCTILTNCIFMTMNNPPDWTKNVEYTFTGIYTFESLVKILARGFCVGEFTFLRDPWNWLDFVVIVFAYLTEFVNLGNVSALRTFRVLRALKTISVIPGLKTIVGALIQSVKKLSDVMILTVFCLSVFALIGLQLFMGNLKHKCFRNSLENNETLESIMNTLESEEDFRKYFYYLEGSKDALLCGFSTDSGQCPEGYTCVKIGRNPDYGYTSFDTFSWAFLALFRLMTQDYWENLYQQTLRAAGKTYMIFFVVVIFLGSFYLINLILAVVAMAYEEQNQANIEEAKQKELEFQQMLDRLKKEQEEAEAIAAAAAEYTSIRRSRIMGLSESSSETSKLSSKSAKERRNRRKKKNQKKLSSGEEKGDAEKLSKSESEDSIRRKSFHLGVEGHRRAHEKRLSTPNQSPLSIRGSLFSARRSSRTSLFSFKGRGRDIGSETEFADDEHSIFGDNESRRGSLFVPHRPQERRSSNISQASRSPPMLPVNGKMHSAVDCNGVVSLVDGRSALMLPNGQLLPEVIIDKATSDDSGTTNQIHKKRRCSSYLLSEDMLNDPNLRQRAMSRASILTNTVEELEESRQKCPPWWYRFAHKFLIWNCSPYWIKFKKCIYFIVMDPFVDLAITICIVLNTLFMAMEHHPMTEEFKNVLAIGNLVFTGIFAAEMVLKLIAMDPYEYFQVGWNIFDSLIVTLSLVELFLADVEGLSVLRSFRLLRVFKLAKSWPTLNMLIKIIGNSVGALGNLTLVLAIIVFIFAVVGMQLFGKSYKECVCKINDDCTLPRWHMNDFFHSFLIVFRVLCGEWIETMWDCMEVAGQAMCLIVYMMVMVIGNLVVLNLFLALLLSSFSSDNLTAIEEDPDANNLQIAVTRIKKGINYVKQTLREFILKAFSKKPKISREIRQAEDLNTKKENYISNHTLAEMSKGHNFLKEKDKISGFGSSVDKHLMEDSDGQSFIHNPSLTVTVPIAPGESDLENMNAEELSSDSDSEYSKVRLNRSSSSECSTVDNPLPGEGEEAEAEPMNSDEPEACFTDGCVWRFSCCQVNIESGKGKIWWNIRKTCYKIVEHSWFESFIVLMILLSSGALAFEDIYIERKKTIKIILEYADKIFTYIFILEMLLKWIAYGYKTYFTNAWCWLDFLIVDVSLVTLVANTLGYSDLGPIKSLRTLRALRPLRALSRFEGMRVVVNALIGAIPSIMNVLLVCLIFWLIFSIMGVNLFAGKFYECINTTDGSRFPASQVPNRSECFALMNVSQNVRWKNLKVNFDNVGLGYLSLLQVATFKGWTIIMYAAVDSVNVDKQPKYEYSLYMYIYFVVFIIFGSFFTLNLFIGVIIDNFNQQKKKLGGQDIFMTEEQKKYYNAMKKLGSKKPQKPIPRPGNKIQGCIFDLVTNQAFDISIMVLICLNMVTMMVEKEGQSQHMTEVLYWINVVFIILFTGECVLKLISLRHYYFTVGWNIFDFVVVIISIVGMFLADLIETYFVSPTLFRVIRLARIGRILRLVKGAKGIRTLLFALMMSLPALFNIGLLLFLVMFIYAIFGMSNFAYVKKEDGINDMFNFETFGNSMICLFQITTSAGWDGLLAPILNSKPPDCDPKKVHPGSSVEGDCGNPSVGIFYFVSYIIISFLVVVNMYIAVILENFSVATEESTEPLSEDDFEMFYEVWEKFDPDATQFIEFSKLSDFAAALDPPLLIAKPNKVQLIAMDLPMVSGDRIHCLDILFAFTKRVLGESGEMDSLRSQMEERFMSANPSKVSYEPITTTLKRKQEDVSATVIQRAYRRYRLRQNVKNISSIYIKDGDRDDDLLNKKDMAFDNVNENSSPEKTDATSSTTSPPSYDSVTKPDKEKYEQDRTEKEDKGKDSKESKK

With `CC[C@H](C)[C@@H]1NC(=O)[C@H](CC(N)=O)NC(=O)[C@@H]2CCCN2C(=O)[C@H](Cc2c[nH]c3ccccc23)NC(=O)[C@H](CCCCN)NC(=O)[C@H](CCCNC(=N)N)NC(=O)[C@H](CCCCN)NC(=O)[C@@H]2CSSC[C@@H]3NC(=O)[C@H](CO)NC(=O)CNC(=O)[C@H](Cc4c[nH]c5ccccc45)NC(=O)[C@H](Cc4ccccc4)NC(=O)[C@H](CCC(N)=O)NC(=O)[C@H](CCCCN)NC(=O)[C@@H](NC(=O)[C@@H](N)CCC(=O)O)CSSC[C@H](NC(=O)[C@H](CSSC[C@@H](C(=O)N[C@@H](CC(C)C)C(=O)N[C@@H](Cc4c[nH]c5ccccc45)C(=O)N[C@@H](CC(=O)O)C(=O)NCC(=O)N[C@H](C(=O)N[C@@H](Cc4ccccc4)C(=O)N[C@@H](CO)C(=O)N[C@@H](CCCCN)C(=O)O)[C@@H](C)O)NC1=O)NC(=O)[C@H](CC(=O)O)NC(=O)[C@H](CO)NC(=O)[C@H](CC(=O)O)NC(=O)[C@H](CCCNC(=N)N)NC(=O)[C@H](CO)NC3=O)C(=O)N[C@@H](CCCCN)C(=O)N[C@@H](Cc1c[nH]cn1)C(=O)N[C@@H](CC(C)C)C(=O)NCC(=O)N2` [Gr4b, δ-theraphotoxin-Gr4b] (H-ECKQFWGSCSRDSDCCKHLGCKRKWPNICLWDGTFSK-OH; disulfide 2-16, 9-21, 15-29), the EC50 – broadly, the concentration at which the effect is half-maximal – on Nav1.9 was determined as 25 ± 1 nM; on Nav1.9/1.8 DIV VSD it was 1500 ± 250 nM. For the same molecule, the IC50 – broadly, the midpoint of a concentration-inhibition curve – on Nav1.4 was determined as 411 ± 184 nM; at Nav1.7, 27 ± 3 nM.
With HWTX-IV, the “reversal of toxin binding by depolarization” value in test [1] is listed as “reversed by prolonged strong depolarizations”.
For the molecule “HaTx1 (ECRYLFGGCKTTSDCCKHLGCKFRDKYCAWDFTFS; UniProt P56852 50-84, looked up)”, the “inhibition of Kv2.1 currents” value with Kv2.1 channel is on record as “significantly inhibit the currents of the Kv2.1 channel”.
For the molecule ProTx-II, the “inhibition of Nav1.7 current, voltage dependence” value with Nav1.7 channel was “inhibits the current of the Nav1.7 channel with a significant voltage dependence”.
